Tests used:
SP49 cells = assay: Ibrutinib sensitivity of parental SP49 cells; type: cell-based
Text: (§1) Animals, cell lines, and primary human tumor samples. BALB/c mice for antibody development and NOD scid gamma (NSG) breeding pairs were purchased from The Jackson Laboratory (Bar Harbor, ME). The NSG breeding colony was maintained by the Animal Resource Center at City of Hope. Mice were housed in a pathogen-free animal facility according to institutional guidelines. All animal studies were approved by the Institutional Animal Care and Use Committee (IACUC: 15020). JeKo-1, SU-DHL-6, Raji, U266 and RL were purchased from ATCC (Manassas, VA). Z-138 line was provided by Dr. Michael Wang (MD Anderson Cancer Center). Ibrutinib-resistant SP49-IR line was developed and provided by Dr. Jianguo Tao (University of South Florida). Ibrutinib-resistant SP49 cell lines (SP49-IR) were established by treating cells with escalating doses of ibrutinib. IC50 was 5 nM for parental SP49 compared to >100 nM for SP49-IR. At 100 nM ibrutinib ˜5% of SP49 cells were viable compared with >90% of SP49-IR cells. Human NK-92 176V cells were obtained from Conkwest Inc. (San Diego, CA). For human blood and tumor samples, non-cultured, primary human lymphomas were obtained as cryopreserved, viable single cell suspensions in 10% DMSO from the Lymphoma Satellite Tissue Bank at MD Anderson Cancer Center under an Institutional Review Board approved protocol (IRB: 2005-0656). […]

SP49-IR cells = assay: Ibrutinib sensitivity of ibrutinib-resistant SP49-IR cells; type: cell-based
Text: as §1

[1] = system: RS4; 11 (acute lymphoblastic leukemia, ALL); assay: In vivo RS4;11 ALL xenograft, bioluminescence imaging; details: RS4;11 challenged NSG mice
Text: FIG. 4A is a schematic showing treatment schedule following Day 0 tumor challenge with minimum lethal dose of tumors. Treatments were given by IV tail vein injections. FIGS. 4B and 4C are images showing chimeric antibodies targeting human BAFF-R elicited in vivo therapeutic effects against B-cell tumors. Bioluminescence images of mice challenged with luciferase-expressing tumors: JeKo-1 (MCL) (FIG. 4B) or RS4; 11 (ALL) (FIG. 4C). Experimental groups received treatment of chimeric BAFF-R mAbs (C55 or C90, as indicated). Control group mice received PBS, NK cells alone, or rituximab on the same schedule. Data are representative of three independent experiments.
(§2) In vivo studies. For tumor models, stable, luciferase-expressing tumors lines were established for bioluminescent imaging in mouse models. Briefly, a luciferase gene was introduced into tumor lines by a lentivirus gene delivery system (pLenti7.3/V5-DEST Gateway Vector Kit, Life Technologies, Carlsbad, CA). The minimum lethal dose per mouse was determined for each tumor cell line by dose titration. Tumor cells were injected intravenously (IV) and mice were monitored by in vivo bioluminescence imaging for minimum tumor dose to ensure engraftment. Minimum lethal tumor doses were: 1×10^6 JeKo-1, 5×10^5 RS4; 11, 5×10^5 JeKo-1-CD20-KO, or 2.5×10^4 Z-138 cells. […]

JeKo-1-CD20-KO clone 25 = assay: ADCC on rituximab-resistant JeKo-1-CD20-KO; type: cell-based; details: E:T=20:1
Protocol: FIGS. 5A, 5B and 5C are images or graphs showing chimeric BAFF-R antibodies induce ADCC on drug resistant lymphoma models in vitro. FIG. 5A is a scatterplot of FACS analysis showing CD20 binding on JeKo-1 cells following CRISPR/HDR knock-out of CD20 gene. CD20 expression on selected CD20−/−clone #25 compared to WT JeKo-1. ADCC effects measured by chromium-51 release after incubation with C55, C90, or rituximab and effectors NK cells (E:T=20:1). Percentage of cell specific lysis of target cells: rituximab-resistant JeKo-1-CD20-KO (FIG. 5B) and ibrutinib-resistant Z-138 and SP49-IR (FIG. 5C). All data are representative of two or more identical experiments. Data are shown as the mean±s.d. of triplicate samples. *P<0.05 compared with NK cells by two-tailed Student's t-test.
Cytotoxicity assays. Target cells (L cells, human tumor lines, primary patient samples) were labeled with chromium-51 (51Cr, Perkin Elmer, Waltham, MA) for a 51Cr release assay. Briefly, antibodies and effectors (NK cells or complement serum standard [Sigma Aldrich, St. Louis, MO]), were added to labeled target cells and incubated up to 18 hours. NK cells were enriched from PBMC (NK cell enrichment kit, Stemcell Technologies, Vancouver, Canada). 51Cr released into supernatant was detected with a Wizard Automatic Gamma Counter (Perkin Elmer).
Generation of JeKo-1-CD20-KO. […]

[2] = system: JeKo-1-CD20-KO tumor cells; assay: In vivo JeKo-1-CD20-KO xenograft; set-up: species or system NSG mice; details: Day 20
Text: FIGS. 6A and 6B are images and FIG. 6C are graphs showing chimeric antibodies targeting human BAFF-R elicited in vivo therapeutic effects against drug resistant B-cell tumors. Bioluminescence images of mice challenged with luciferase-expressing tumors JeKo-1-CD20-KO cells (FIG. 6A) or ibrutinib-resistant Z-138 cells (FIG. 6B) followed by antibody treatments as in FIG. 4. Control group mice received PBS, NK cells alone, or rituximab on the same schedule. […] Tumor free rate and survival differences between experimental and all control groups were analyzed by log-rank test (**P<0.001). Data are representative of three independent experiments.
as §2

[3] = system: JeKo-1, Z138, and RS4 lines; assay: ADCC chromium release of humanized C90-4 and C90-5, dose response; type: cell-based; details: RS4 acute lymphoblastic lymphoma
Protocol: FIGS. 21A and 21B are graphs showing humanized antibodies C90-4 and C90-5 analyzed for their specific cytotoxicity of various lymphoma lines. For FIG. 21A, JeKo-1, Z138, and RS4 were subjected to a chromium release assay with humanized antibodies C90-4 and C90-5. Antibodies were administered to the cell lines at concentrations between 0 to 5 μg/mL and incubated for 6 hours with NK cells at an E:T ratio of 20:1. The cell supernatants were analyzed for their chromium content. For FIG. 21B, LY-10, MEC-2, RL, and Raji lymphoma lines were subjected to a chromium release assay with humanized antibodies C90-4 and C90-5. Antibodies were administered to the cell lines at 5 μg/mL and incubated for 6 hours with NK cells at an E:T ratio of 20:1. The cell supernatants were analyzed for their chromium content.
The two variants were further assessed in their ability to initiate ADCC. The antibodies were administered in varying concentration to JeKo-1, Z138, and RS4 lines after a period of chromium uptake. The cells and antibodies were incubated with effector NK cells. The supernatant was analyzed 6 hours post treatment (FIG. 21A).

IC50 (SP49-IR cells) | Compound | viability at 0.1 µM (SP49 cells; At 100 nM ibrutinib, SP49, read-out: viable cells) | IC50 (SP49 cells; parental SP49) | viability at 0.1 µM (SP49-IR cells; At 100 nM ibrutinib, read-out: viable cells) | tumor growth [1] | sensitivity to antibody-mediated cytotoxicity (JeKo-1-CD20-KO clone 25) | tumor burden by bioluminescent imaging [2] | ADCC activity [3]
> 100 nM | C=CC(=O)N1CCC[C@@H](n2nc(-c3ccc(Oc4ccccc4)cc3)c3c(N)ncnc32)C1 [ibrutinib] | ~5% | 5 nM | > 90% | – | – | – | –
– | rituximab [reference compound] | – | – | – | no inhibition | insensitive | substantial tumor burden | not active

— patent US11981740B2, “BAFF-R antibodies and uses thereof” (CITY OF HOPE, priority 2016, dated 2024)
